Among the data in the supplement of paper PMC10307832 are relative viability values, retold here.

What all share (assay): relative viability (nuclei count vs DMSO), 5 days (fraction); higher = more cells survive
Compound in the assay “Decitabine + Tozasertib”: Nc1ncn([C@H]2C[C@H](O)[C@@H](CO)O2)c(=O)n1 [Decitabine] + Cc1cc(Nc2cc(N3CCN(C)CC3)nc(Sc3ccc(NC(=O)C4CC4)cc3)n2)n[nH]1 [Tozasertib] (partner 0.1 µM)
The method, boiled down:
(§1)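 After 5 days of treatment, lung cancer cells in 1536-well plates were fixed and stained in a single step (final 0.05% Triton X-100, 1% formaldehyde, 1 ug/ml Hoechst) and their nuclei counted on 4× images. Treatment had been applied by pin tool the day after seeding as one drug alone or as a fixed anchor-drug dose with five library-drug doses (not always all listed) in √10 steps. Relative viability is the nuclei count of treated wells divided by that of vehicle wells, and values are medians of duplicate plates.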

Compound in the assay “Halofuginone + OSI-027”: O=C(C[C@H]1NCCC[C@@H]1O)Cn1cnc2cc(Br)c(Cl)cc2c1=O (racemic) [Halofuginone] + COc1cccc2cc(-c3nc([C@H]4CC[C@H](C(=O)O)CC4)n4ncnc(N)c34)[nH]c12 [OSI-027] (partner 0.5 µM)
The method, boiled down:
as §1

Compound in assay [1]: O=C(C[C@H]1NCCC[C@@H]1O)Cn1cnc2cc(Br)c(Cl)cc2c1=O (racemic) [Halofuginone] + CS(=O)(=O)N1CCN(Cc2cc3nc(-c4cccc5[nH]ncc45)nc(N4CCOCC4)c3s2)CC1 [Pictilisib] (partner 1 µM)
A digest of the protocol:
as §1

Compound in assay [2]: O=C(C[C@H]1NCCC[C@@H]1O)Cn1cnc2cc(Br)c(Cl)cc2c1=O (racemic) [Halofuginone] + O=C(CCCCCCC(=O)Nc1ccccc1)NO [Vorinostat] (partner 1 µM)
The method, boiled down:
as §1

NCI-H23: the relative viability with Decitabine + Tozasertib (first compound 0.04 µM) was found to be 0.256; with Decitabine + Tozasertib (first compound 0.1265 µM) it was 0.199; with Decitabine + Tozasertib (first compound 0.4 µM), 0.152; with Decitabine + Tozasertib (first compound 1.265 µM), 0.195; in the assay with Decitabine + Tozasertib (first compound 4 µM), 0.172; with Halofuginone + OSI-027 (first compound 0.001 µM) it was 0.755. The relative viability is 0.554 in the assay with Halofuginone + OSI-027 (first compound 0.003162 µM); 0.545 in the assay with Halofuginone + OSI-027 (first compound 0.01 µM); 0.441 with Halofuginone + OSI-027 (first compound 0.03162 µM); 0.344 in the assay with Halofuginone + OSI-027 (first compound 0.1 µM); 0.507 in assay [1] (first compound 0.001 µM); 0.518 in assay [1] (first compound 0.003162 µM). The relative viability was 0.47 in assay [1] (first compound 0.01 µM); 0.415 in assay [1] (first compound 0.03162 µM); 0.296 in assay [1] (first compound 0.1 µM); 0.664 in assay [2] (first compound 0.001 µM); 0.521 in assay [2] (first compound 0.003162 µM); 0.559 in assay [2] (first compound 0.01 µM). Also, the relative viability in assay [2] (first compound 0.03162 µM) stood at 0.553; in assay [2] (first compound 0.1 µM) it was 0.534.

Consider NCI-H322M, for which the relative viability in the assay with Decitabine + Tozasertib (first compound 0.04 µM) stood at 0.415; with Decitabine + Tozasertib (first compound 0.1265 µM), 0.484; with Decitabine + Tozasertib (first compound 0.4 µM), 0.426; with Decitabine + Tozasertib (first compound 1.265 µM) it was 0.35; with Decitabine + Tozasertib (first compound 4 µM) it was 0.376; with Halofuginone + OSI-027 (first compound 0.001 µM) it was 0.596. Besides, the relative viability in the assay with Halofuginone + OSI-027 (first compound 0.003162 µM) was determined as 0.652; with Halofuginone + OSI-027 (first compound 0.01 µM), 0.488; with Halofuginone + OSI-027 (first compound 0.03162 µM), 0.49; in the assay with Halofuginone + OSI-027 (first compound 0.1 µM), 0.346; in assay [1] (first compound 0.001 µM) it was 0.484; in assay [1] (first compound 0.003162 µM), 0.514. Further, the relative viability was 0.489 in assay [1] (first compound 0.01 µM); 0.486 in assay [1] (first compound 0.03162 µM); 0.502 in assay [1] (first compound 0.1 µM); 0.935 in assay [2] (first compound 0.001 µM); 0.967 in assay [2] (first compound 0.003162 µM); 0.811 in assay [2] (first compound 0.01 µM). Moreover, the relative viability in assay [2] (first compound 0.03162 µM) was 0.865; in assay [2] (first compound 0.1 µM), 0.561.

Take NCI-H358: the relative viability is 0.121 with Decitabine + Tozasertib (first compound 0.04 µM); 0.0951 with Decitabine + Tozasertib (first compound 0.1265 µM); 0.0825 in the assay with Decitabine + Tozasertib (first compound 0.4 µM); 0.1 with Decitabine + Tozasertib (first compound 1.265 µM); 0.0948 with Decitabine + Tozasertib (first compound 4 µM); 0.972 in the assay with Halofuginone + OSI-027 (first compound 0.001 µM). Moreover, the relative viability was found to be 0.836 with Halofuginone + OSI-027 (first compound 0.003162 µM); 0.664 with Halofuginone + OSI-027 (first compound 0.01 µM); 0.267 in the assay with Halofuginone + OSI-027 (first compound 0.03162 µM); 0.107 in the assay with Halofuginone + OSI-027 (first compound 0.1 µM); 0.364 in assay [1] (first compound 0.001 µM); 0.351 in assay [1] (first compound 0.003162 µM). In addition, the relative viability in assay [1] (first compound 0.01 µM) was 0.359; in assay [1] (first compound 0.03162 µM), 0.245; in assay [1] (first compound 0.1 µM), 0.196; in assay [2] (first compound 0.001 µM), 0.79; in assay [2] (first compound 0.003162 µM) it was 0.702; in assay [2] (first compound 0.01 µM), 0.634. In addition, the relative viability in assay [2] (first compound 0.03162 µM) came to 0.233; in assay [2] (first compound 0.1 µM), 0.109.

Turning to NCI-H441, the relative viability was 0.296 in the assay with Decitabine + Tozasertib (first compound 0.04 µM); 0.269 in the assay with Decitabine + Tozasertib (first compound 0.1265 µM); 0.208 with Decitabine + Tozasertib (first compound 0.4 µM); 0.234 with Decitabine + Tozasertib (first compound 1.265 µM); 0.317 with Decitabine + Tozasertib (first compound 4 µM); 0.737 with Halofuginone + OSI-027 (first compound 0.001 µM). The relative viability with Halofuginone + OSI-027 (first compound 0.003162 µM) was 0.583; with Halofuginone + OSI-027 (first compound 0.01 µM) it was 0.591; in the assay with Halofuginone + OSI-027 (first compound 0.03162 µM) it was 0.647; with Halofuginone + OSI-027 (first compound 0.1 µM), 0.336; in assay [1] (first compound 0.001 µM), 0.482; in assay [1] (first compound 0.003162 µM) it was 0.466. The relative viability is 0.489 in assay [1] (first compound 0.01 µM); 0.415 in assay [1] (first compound 0.03162 µM); 0.385 in assay [1] (first compound 0.1 µM); 0.799 in assay [2] (first compound 0.001 µM); 0.936 in assay [2] (first compound 0.003162 µM); 0.863 in assay [2] (first compound 0.01 µM). Besides, the results for the relative viability in assay [2] (first compound 0.03162 µM) and in assay [2] (first compound 0.1 µM) were 0.8 and 0.49, respectively.
